Results reported in US20240108601A1, “TREATMENT OF MENTAL DISORDERS” (GH Research Ireland Limited, priority 2022, published 2024).
“And” between values parts separate entries of the source, which are not always exact repeats. Identical values can stand only once.

Test system: patients with treatment-resistant major depressive disorder (TRD)
Assay: Phase 1/2 clinical trial of inhaled 5-MeO-DMT in treatment-resistant depression
Conditions: for MADRS Concentration Difficulties % improvement / MADRS Concentration Difficulties improvement / MADRS Inability to Feel % improvement / MADRS Inability to Feel improvement / MADRS Inner Tension % improvement / MADRS Inner Tension improvement / MADRS Lassitude % improvement / MADRS Lassitude improvement / MADRS Pessimistic Thoughts % improvement / MADRS Pessimistic Thoughts improvement / MADRS Suicidal Thoughts % improvement / MADRS Suicidal Thoughts improvement / MADRS Suicidal Thoughts aggregated score / MADRS Inner Tension aggregated score / MADRS Concentration Difficulties aggregated score / MADRS Inability to Feel aggregated score / MADRS Lassitude aggregated score / MADRS Pessimistic Thoughts aggregated score / BPRS Anxiety % improvement / BPRS Anxiety improvement / BPRS Blunted Affect % improvement / BPRS Blunted Affect improvement / BPRS Emotional Withdrawal % improvement / BPRS Emotional Withdrawal improvement / BPRS Guilt Feelings % improvement / BPRS Guilt Feelings improvement / BPRS Tension % improvement / BPRS Tension improvement / BPRS Blunted Affect aggregated score / BPRS Emotional Withdrawal aggregated score / BPRS Tension aggregated score / BPRS Guilt Feelings aggregated score / BPRS Anxiety aggregated score / MADRS Reduced Sleep % improvement / MADRS Reduced Sleep improvement / MADRS Reduced Sleep aggregated score: 12 mg n=4; for MADRS Suicidal Thoughts aggregated score: baseline 8; for MADRS Inner Tension aggregated score / BPRS Emotional Withdrawal aggregated score: baseline 13; for MADRS Concentration Difficulties aggregated score / MADRS Inability to Feel aggregated score / MADRS Lassitude aggregated score / MADRS Pessimistic Thoughts aggregated score: baseline 16; for BPRS Blunted Affect aggregated score: baseline 11; for BPRS Tension aggregated score: baseline 14; for BPRS Guilt Feelings aggregated score: baseline 18; for BPRS Anxiety aggregated score: baseline 25; for MADRS Reduced Sleep aggregated score: baseline 12
Method: Patients were assigned to different groups. In the context of the present invention, the group who received a single, 12 mg dose and the group who underwent an intra-day individualized dosing regimen (IDR) that allowed for multiple, escalating doses (6 mg, 12 mg and 18 mg) within a single day, driven by the intensity of the patient-reported psychedelic experience are of interest.
The data gathered include the assessment of the treated patients against several scales including the Montgomery Åsberg Depression Rating Scale (MADRS) and the Brief Psychiatric Rating Scale (BPRS).
This trial was designed in two parts. Part A was an open-label, single-arm, single-dose Phase 1 trial with two dose levels (12 mg (n=4) and 18 mg (n=4)). […] The primary endpoint of Part B was to assess the effects on the severity of depression, as assessed by the proportion of patients in remission on day seven after dosing, defined as a MADRS total score of less than or equal to 10.

COc1ccc2[nH]cc(CCN(C)C)c2c1 [5-MeO-DMT]
Patients with MADRS remission (total score ≤10) (12 mg group n=4, day seven): 50% | Mean MADRS change from baseline (12 mg group, day seven): −21.0 | Mean MADRS change from baseline, percent (12 mg group, day seven): −65% | MADRS Concentration Difficulties % improvement (2 h): 56% and 56.25% | MADRS Concentration Difficulties improvement (2 h): 9 points | MADRS Inability to Feel % improvement (2 h): 44% and 43.75% | MADRS Inability to Feel improvement (2 h): 7 points | MADRS Inner Tension % improvement (2 h): 85% and 84.62% | MADRS Inner Tension improvement (2 h): 11 points | MADRS Lassitude % improvement (2 h): 38% and 37.50% | MADRS Lassitude improvement (2 h): 6 points | MADRS Pessimistic Thoughts % improvement (2 h): 50% | MADRS Pessimistic Thoughts improvement (2 h): 8 points | MADRS Suicidal Thoughts % improvement (2 h): 63% and 62.50% | MADRS Suicidal Thoughts improvement (2 h): 5 points | MADRS Suicidal Thoughts aggregated score (2 h): 3 | MADRS Inner Tension aggregated score (2 h): 2 | MADRS Concentration Difficulties aggregated score (2 h): 7 | MADRS Inability to Feel aggregated score (2 h): 9 | MADRS Lassitude aggregated score (2 h): 10 | MADRS Pessimistic Thoughts aggregated score (2 h): 8 | BPRS Anxiety % improvement (3 h): 56% | BPRS Anxiety improvement (3 h): 14 points | BPRS Blunted Affect % improvement (3 h): 27% and 27.27% | BPRS Blunted Affect improvement (3 h): 3 points | BPRS Emotional Withdrawal % improvement (3 h): 15% and 15.38% | BPRS Emotional Withdrawal improvement (3 h): 2 points | BPRS Guilt Feelings % improvement (3 h): 50% | BPRS Guilt Feelings improvement (3 h): 9 points | BPRS Tension % improvement (3 h): 36% and 35.71% | BPRS Tension improvement (3 h): 5 points | BPRS Blunted Affect aggregated score (3 h): 8 | BPRS Emotional Withdrawal aggregated score (3 h): 11 | BPRS Tension aggregated score (3 h): 9 | BPRS Guilt Feelings aggregated score (3 h): 9 | BPRS Anxiety aggregated score (3 h): 11 | BPRS Anxiety % improvement (day 1): 76% | BPRS Anxiety improvement (day 1): 19 points | BPRS Blunted Affect % improvement (day 1): 45% and 45.45% | BPRS Blunted Affect improvement (day 1): 5 points | BPRS Emotional Withdrawal % improvement (day 1): 38% and 38.46% | BPRS Emotional Withdrawal improvement (day 1): 5 points | BPRS Guilt Feelings % improvement (day 1): 72% and 72.22% | BPRS Guilt Feelings improvement (day 1): 13 points | BPRS Tension % improvement (day 1): 57% and 57.14% | BPRS Tension improvement (day 1): 8 points | MADRS Concentration Difficulties % improvement (day 1): 88% and 87.50% | MADRS Concentration Difficulties improvement (day 1): 14 points | MADRS Inability to Feel % improvement (day 1): 94% and 93.75% | MADRS Inability to Feel improvement (day 1): 15 points | MADRS Inner Tension % improvement (day 1): 77% and 76.92% | MADRS Inner Tension improvement (day 1): 10 points | MADRS Lassitude % improvement (day 1): 100% | MADRS Lassitude improvement (day 1): 16 points | MADRS Pessimistic Thoughts % improvement (day 1): 56% and 56.25% | MADRS Pessimistic Thoughts improvement (day 1): 9 points | MADRS Reduced Sleep % improvement (day 1): 17% and 16.67% | MADRS Reduced Sleep improvement (day 1): 2 points | MADRS Suicidal Thoughts % improvement (day 1): 38% and 37.50% | MADRS Suicidal Thoughts improvement (day 1): 3 points | MADRS Suicidal Thoughts aggregated score (day 1): 5 | BPRS Blunted Affect aggregated score (day 1): 6 | MADRS Reduced Sleep aggregated score (day 1): 10 | BPRS Emotional Withdrawal aggregated score (day 1): 8 | MADRS Inner Tension aggregated score (day 1): 3 | BPRS Tension aggregated score (day 1): 6 | MADRS Concentration Difficulties aggregated score (day 1): 2 | MADRS Inability to Feel aggregated score (day 1): 1 | MADRS Lassitude aggregated score (day 1): 0 | MADRS Pessimistic Thoughts aggregated score (day 1): 7 | BPRS Guilt Feelings aggregated score (day 1): 5 | BPRS Anxiety aggregated score (day 1): 6 | BPRS Anxiety % improvement (day 7): 76% | BPRS Anxiety improvement (day 7): 19 points | BPRS Blunted Affect % improvement (day 7): 55% and 54.55% | BPRS Blunted Affect improvement (day 7): 6 points | BPRS Emotional Withdrawal % improvement (day 7): 54% and 53.85% | BPRS Emotional Withdrawal improvement (day 7): 7 points | BPRS Guilt Feelings % improvement (day 7): 72% and 72.22% | BPRS Guilt Feelings improvement (day 7): 13 points | BPRS Tension % improvement (day 7): 57% and 57.14% | BPRS Tension improvement (day 7): 8 points | MADRS Concentration Difficulties % improvement (day 7): 81% and 81.25% | MADRS Concentration Difficulties improvement (day 7): 13 points | MADRS Inability to Feel % improvement (day 7): 94% and 93.75% | MADRS Inability to Feel improvement (day 7): 15 points | MADRS Inner Tension % improvement (day 7): 62% and 61.54% | MADRS Inner Tension improvement (day 7): 8 points | MADRS Lassitude % improvement (day 7): 81% and 81.25% | MADRS Lassitude improvement (day 7): 13 points | MADRS Pessimistic Thoughts % improvement (day 7): 50% | MADRS Pessimistic Thoughts improvement (day 7): 8 points | MADRS Reduced Sleep % improvement (day 7): 50% | MADRS Reduced Sleep improvement (day 7): 6 points | MADRS Suicidal Thoughts % improvement (day 7): 13% and 12.50% | MADRS Suicidal Thoughts improvement (day 7): 1 points | MADRS Suicidal Thoughts aggregated score (day 7): 7 | BPRS Blunted Affect aggregated score (day 7): 5 | MADRS Reduced Sleep aggregated score (day 7): 6 | BPRS Emotional Withdrawal aggregated score (day 7): 6 | MADRS Inner Tension aggregated score (day 7): 5 | BPRS Tension aggregated score (day 7): 6 | MADRS Concentration Difficulties aggregated score (day 7): 3 | MADRS Inability to Feel aggregated score (day 7): 1 | MADRS Lassitude aggregated score (day 7): 3 | MADRS Pessimistic Thoughts aggregated score (day 7): 8 | BPRS Guilt Feelings aggregated score (day 7): 5 | BPRS Anxiety aggregated score (day 7): 6 | Further patients with MADRS clinical response (18 mg group n=4, day seven): 25% | Patients with MADRS remission (total score ≤10) (18 mg group n=4, day seven): 25% | Mean MADRS change from baseline (18 mg group, day seven): −12.8 | Mean MADRS change from baseline, percent (18 mg group, day seven): −41% | Patients with MADRS remission (total score ≤10) (IDR (Part B) n=8, day seven, p<0.0001): 87.5%
